Experimental findings from ChEMBL document CHEMBL5724914, “Linking interpersonal differences in gut microbiota composition and drug biotransformation activity” (2024) are described below.

Series [1] can be described thus: The drug is tested on Z-010 corresponding to metagenome with ENA study accession number: PRJEB37062 and ENA sample accession number: ERS12561810 for biotransformation under anaerobic condition. The drug concentrations were measured over 9 timepoints collected between 0 and 24 hours of incubation by liquid-chromatography-coupled mass spectrometry (LC–MS). To be noted: 2 µM.

Series [2] in a line: The drug is tested on WLS-038 corresponding to human gut metagenome with ENA study accession number: PRJEB37062 and ENA sample accession number: ERS12561745 for biotransformation under anaerobic condition. The drug concentrations were measured over 9 timepoints collected between 0 and 24 hours of incubation by liquid-chromatography-coupled mass spectrometry (LC–MS). The settings on record: 2 µM.

Series [3] is described as follows: The drug is tested on WLS-027 corresponding to human gut metagenome with ENA study accession number: PRJEB37062 and ENA sample accession number: ERS12561744 for biotransformation under anaerobic condition. The drug concentrations were measured over 9 timepoints collected between 0 and 24 hours of incubation by liquid-chromatography-coupled mass spectrometry (LC–MS). To be noted: 2 µM.

For series [4] the following is noted: human gut metagenome, 24 h, 2 µM.
The conditions of series [5]: human gut metagenome, 24 h, 2 µM. This is another data set of the same source.
Series [6] in a line: The drug is tested on WLS-039 corresponding to human gut metagenome with ENA study accession number: PRJEB37062 and ENA sample accession number: ERS12561746 for biotransformation under anaerobic condition. The drug concentrations were measured over 9 timepoints collected between 0 and 24 hours of incubation by liquid-chromatography-coupled mass spectrometry (LC–MS). To be noted: 2 µM.

Series [7] can be described thus: The drug is tested on WLS-010 corresponding to human gut metagenome with ENA study accession number: PRJEB37062 and ENA sample accession number: ERS12561743 for biotransformation under anaerobic condition. The drug concentrations were measured over 9 timepoints collected between 0 and 24 hours of incubation by liquid-chromatography-coupled mass spectrometry (LC–MS). The settings on record: 2 µM.

For series [8] the following is noted: human gut metagenome, 24 h, 2 µM. The source holds these as a separate data set.
Series [9] in a line: The drug is tested on Z-018 corresponding to pig gut metagenome with ENA study accession number: PRJEB37062 and ENA sample accession number: ERS12561817 for biotransformation under anaerobic condition. The drug concentrations were measured over 9 timepoints collected between 0 and 24 hours of incubation by liquid-chromatography-coupled mass spectrometry (LC–MS). The settings on record: 2 µM.

The conditions of series [10]: human gut metagenome, 24 h, 2 µM. This is another data set of the same source.
The nature of series [11]: The drug is tested on WLS-350 corresponding to human gut metagenome with ENA study accession number: PRJEB37062 and ENA sample accession number: ERS12561789 for biotransformation under anaerobic condition. The drug concentrations were measured over 9 timepoints collected between 0 and 24 hours of incubation by liquid-chromatography-coupled mass spectrometry (LC–MS). The settings on record: 2 µM.

The conditions of series [12]: human gut metagenome, 24 h, 2 µM. This is another data set of the same source.
For series [13] the following is noted: human gut metagenome, 24 h, 2 µM. The source holds these as a separate data set.
Series [14] is described as follows: The drug is tested on Z-022 corresponding to mouse gut metagenome with ENA study accession number: PRJEB37062 and ENA sample accession number: ERS12561821 for biotransformation under anaerobic condition. The drug concentrations were measured over 9 timepoints collected between 0 and 24 hours of incubation by liquid-chromatography-coupled mass spectrometry (LC–MS). To be noted: 2 µM.

The conditions of series [15]: human gut metagenome, 24 h, 2 µM. The source holds these as a separate data set.
Series [16] can be described thus: The drug is tested on Z-014 corresponding to rat gut metagenome with ENA study accession number: PRJEB37062 and ENA sample accession number: ERS12561814 for biotransformation under anaerobic condition. The drug concentrations were measured over 9 timepoints collected between 0 and 24 hours of incubation by liquid-chromatography-coupled mass spectrometry (LC–MS). To be noted: 2 µM.

For series [17] the following is noted: human gut metagenome, 24 h, 2 µM. The source holds these as a separate data set.
Series [18] can be described thus: The drug is tested on Z-029 corresponding to rat gut metagenome with ENA study accession number: PRJEB37062 and ENA sample accession number: ERS12561828 for biotransformation under anaerobic condition. The drug concentrations were measured over 9 timepoints collected between 0 and 24 hours of incubation by liquid-chromatography-coupled mass spectrometry (LC–MS). The settings on record: 2 µM.

For series [19] the following is noted: human gut metagenome, 24 h, 2 µM. This is another data set of the same source.
Series [20] can be described thus: The drug is tested on WLS-090 corresponding to human gut metagenome with ENA study accession number: PRJEB37062 and ENA sample accession number: ERS12561753 for biotransformation under anaerobic condition. The drug concentrations were measured over 9 timepoints collected between 0 and 24 hours of incubation by liquid-chromatography-coupled mass spectrometry (LC–MS). To be noted: 2 µM.

The structures appear in SMILES notation.
Further: call rule not given here.

Consider `COC(=O)[C@H]1[C@H]2C[C@@H]3c4[nH]c5cc(OC)ccc5c4CCN3C[C@H]2C[C@@H](OC(=O)c2cc(OC)c(OC)c(OC)c2)[C@@H]1OC` [RESERPINE], for which the “Bacterial Biotransformation” value in series [1] is “Compound NOT metabolized”; in [2], “Compound NOT metabolized”; in series [3], “Compound metabolized”; in series [4], “Compound NOT metabolized”; in [5] it was “Compound metabolized”; in [6] it was “Compound metabolized”. Further, the “Bacterial Biotransformation” value in [7] is recorded as “Compound metabolized”; in series [8] it was “Compound NOT metabolized”; in [9], “Compound NOT metabolized”; in [10], “Compound metabolized”; in series [11], “Compound NOT metabolized”; in series [12], “Compound metabolized”. Also, the “Bacterial Biotransformation” value in [13] is recorded as “Compound metabolized”; in [14] it was “Compound metabolized”; in series [15], “Compound NOT metabolized”; in series [16] it was “Compound NOT metabolized”; in series [17], “Compound NOT metabolized”; in series [18], “Compound NOT metabolized”. The entries for the “Bacterial Biotransformation” value in series [19] and in [20] were “Compound NOT metabolized” and “Compound metabolized”, respectively.
`Nc1nc2ccc(OC(F)(F)F)cc2s1` [RILUZOLE]: the “Bacterial Biotransformation” value in series [1], in [2], in series [3], in [4], in [5] and in series [6] was “Compound metabolized” in each case. For the same molecule, the “Bacterial Biotransformation” value is listed as “Compound metabolized” in series [7]; “Compound metabolized” in series [8]; “Compound metabolized” in [9]; “Compound metabolized” in series [10]; “Compound NOT metabolized” in series [11]; “Compound metabolized” in series [12]. For the same molecule, the “Bacterial Biotransformation” value was “Compound NOT metabolized” in series [13]; “Compound metabolized” in series [14]; “Compound metabolized” in series [15]; “Compound NOT metabolized” in series [16]; “Compound NOT metabolized” in series [17]; “Compound metabolized” in series [18]. Further, the “Bacterial Biotransformation” value in series [19] is on record as “Compound NOT metabolized”; in series [20], “Compound metabolized”.
With `CC(C)c1nc(CN(C)C(=O)N[C@H](C(=O)N[C@@H](Cc2ccccc2)C[C@H](O)[C@H](Cc2ccccc2)NC(=O)OCc2cncs2)C(C)C)cs1` [RITONAVIR], the “Bacterial Biotransformation” value in [1] is “Compound metabolized”; in series [2] it was “Compound metabolized”; in series [3] it was “Compound metabolized”; in series [4], “Compound NOT metabolized”; in [5], “Compound metabolized”; in [6] it was “Compound metabolized”. For the same molecule, the “Bacterial Biotransformation” value in [7] is on record as “Compound metabolized”; in [8], “Compound metabolized”; in series [9], “Compound metabolized”; in series [10], “Compound metabolized”; in series [11], “Compound NOT metabolized”; in series [12], “Compound metabolized”. Besides, the “Bacterial Biotransformation” value in series [13] is “Compound metabolized”; in series [14], “Compound NOT metabolized”; in [15], “Compound metabolized”; in [16], “Compound metabolized”; in series [17], “Compound NOT metabolized”; in series [18], “Compound NOT metabolized”. In addition, the results for the “Bacterial Biotransformation” value in series [19] and in series [20] were “Compound NOT metabolized” and “Compound metabolized”, respectively.
With `CC(C)NCC(O)c1ccc(NS(C)(=O)=O)cc1` (stereo not given) [SOTALOL], the “Bacterial Biotransformation” value in series [1], in series [2], in series [3], in series [4], in series [5] and in series [6] was “Compound NOT metabolized” throughout. The “Bacterial Biotransformation” value in series [7], in [8], in series [9], in series [10], in series [11] and in series [12] was “Compound NOT metabolized” in each case. For the same molecule, the “Bacterial Biotransformation” value in series [13], in [14], in series [15], in [16], in series [17] and in series [18] was “Compound NOT metabolized” throughout. Also, the “Bacterial Biotransformation” value in series [19] is “Compound NOT metabolized”; in series [20] it was “Compound metabolized”.
`CCN1CCCC1CNC(=O)c1cc(S(N)(=O)=O)ccc1OC` (stereo not given) [SULPIRIDE]: the “Bacterial Biotransformation” value was “Compound metabolized” in [1]; “Compound NOT metabolized” in [2]; “Compound metabolized” in series [3]; “Compound NOT metabolized” in series [4]; “Compound NOT metabolized” in series [5]; “Compound NOT metabolized” in [6]. In addition, the “Bacterial Biotransformation” value is “Compound metabolized” in [7]; “Compound NOT metabolized” in series [8]; “Compound metabolized” in series [9]; “Compound metabolized” in series [10]; “Compound NOT metabolized” in [11]; “Compound metabolized” in [12]. Also, the “Bacterial Biotransformation” value in series [13], in [14], in series [15], in series [16], in series [17] and in series [18] was “Compound NOT metabolized” throughout. The entries for the “Bacterial Biotransformation” value in series [19] and in [20] were “Compound NOT metabolized” and “Compound metabolized”, respectively.
Turning to `CNS(=O)(=O)Cc1ccc2[nH]cc(CCN(C)C)c2c1.O=C(O)CCC(=O)O` [SUMATRIPTAN SUCCINATE], the “Bacterial Biotransformation” value in series [1] is “Compound NOT metabolized”; in series [2], “Compound NOT metabolized”; in [3] it was “Compound NOT metabolized”; in series [4], “Compound NOT metabolized”; in [5] it was “Compound metabolized”; in [6] it was “Compound NOT metabolized”. Moreover, the “Bacterial Biotransformation” value in series [7] is “Compound NOT metabolized”; in series [8] it was “Compound NOT metabolized”; in series [9] it was “Compound NOT metabolized”; in series [10], “Compound metabolized”; in series [11], “Compound NOT metabolized”; in series [12] it was “Compound metabolized”. In addition, the “Bacterial Biotransformation” value in series [13], in series [14], in [15], in [16], in [17] and in series [18] was “Compound NOT metabolized” in each case. In addition, the “Bacterial Biotransformation” value is “Compound NOT metabolized” in series [19] and “Compound metabolized” in [20].
